Consider 7 molecules from patent publication US9617214B2, “Compounds for cognitive enhancement and methods of use thereof” (The Translational Genomics Research Institute, priority 2013, dated 2017).

Entries after “also recorded” stand apart in the source; their conditions may differ. Read-outs that look alike come from different tables or passages of the source.

As usually defined, the IC50 is the concentration that gives 50% inhibition.

For test [1], the target named is T1, ROCK1 (Homo sapiens, UniProt Q13464). The test can be described thus: ROCK1 enzyme activity at 10 μM. The class given is biochemical. The note with it: 10 μM compound. The method, then:
(§1) Enzyme activity of ROCK1 and ROCK2 were studied at 10 μM to compare the inhibition activity of ROCK inhibitors. Table 2 summarizes the extent of inhibition of the compounds of the inventions.

For test [2], the system named is H4-tau cells. Nature of the test: p-tau protein to total tau protein ratio in H4-tau cells at IC10 dosage, 96-hour time course, ELISA. Type of test: cell-based, human. The note with it: 96-hour time course, compared to vehicle (DMSO), two-sided t-test. The protocol: Thirteen different ROCK inhibitors were tested for their effect on the ratio of p-tau protein to total tau protein. […] Alamar Blue was used after cells were treated with the respective compounds at various dosages to determine the IC10 value. The compounds were applied to H4-tau cells over a 96-hour time course with 8 time points (at hours 12, 24, 36, 48, 60, 72, 84, and 96). At each time point, total cell protein was collected and p-tau protein and total tau protein was assessed using an enzyme-linked immunosorbent assay. The p-tau to total tau protein ratio at each time point for each drug was compared to the corresponding time point for cells treated with vehicle (DMSO) used to solubilize the respective compound.
Two-sided t-tests were used to determine significant changes in the p-tau protein to total tau protein ratio for each drug across the entire time course at each tested time point. Cells treated by drug were compared to cells treated to vehicle.
For orientation: ELISA stands for enzyme-linked immunosorbent assay.

The target in test [3] is T2, ROCK2 (Homo sapiens, UniProt O75116). Nature of the test: ROCK2 enzyme activity at 10 μM. Type of test: biochemical. The note with it: 10 μM compound. The method, then: as §1
For test [4], the target named is T2, ROCK2. The test can be described thus: IC50 value for ROCK2 activity. The class given is biochemical. To be noted: ATP at Km (10 μM).
In test [5] the test system is H4-tau cells. The test can be described thus: Validation time course in H4-tau cells at IC50 (cell survival) dosage: p-tau and total tau protein by ELISA. Type of test: cell-based, human. The note with it: IC50 dosage for cell survival, over 96 hours; for concentration of total tau protein: FIG. 2; for concentration of p-tau protein: FIG. 3. The method, then: The time course was repeated using 4 biological replicates over 96 hours and 10 time points (at hours 0, 6, 12, 24, 36, 48, 60, 72, 84, and 96). Total cell protein was collected at each time point and ELISAs were used to measure p-tau protein and total tau protein.

For test [6], the target named is T1, ROCK1. Nature of the test: IC50 value for ROCK1 activity. Type of test: biochemical. The note with it: ATP at Km (10 μM).
Test [7] relates to rats. The note with it: cited from earlier work.
Test [8] concerns Aβ42. To be noted: mouse model of AD; cited from earlier work.
The test system of test [9] is rats. The note with it: aged rats; cited from earlier work.
The mark [10] stands for this setting: Test 1, read-out: % enzyme activity at 10 μM ROCK1 Test 1.
[11] abbreviates: Test 2, read-out: % enzyme activity at 10 μM ROCK1 Test 2.
The mark [12] stands for this setting: Test 1, read-out: % enzyme activity at 10 μM ROCK2 Test 1.
Where [13] appears, read: Test 2, read-out: % enzyme activity at 10 μM ROCK2 Test 2.

T1 sequence (Q13464 whole entry): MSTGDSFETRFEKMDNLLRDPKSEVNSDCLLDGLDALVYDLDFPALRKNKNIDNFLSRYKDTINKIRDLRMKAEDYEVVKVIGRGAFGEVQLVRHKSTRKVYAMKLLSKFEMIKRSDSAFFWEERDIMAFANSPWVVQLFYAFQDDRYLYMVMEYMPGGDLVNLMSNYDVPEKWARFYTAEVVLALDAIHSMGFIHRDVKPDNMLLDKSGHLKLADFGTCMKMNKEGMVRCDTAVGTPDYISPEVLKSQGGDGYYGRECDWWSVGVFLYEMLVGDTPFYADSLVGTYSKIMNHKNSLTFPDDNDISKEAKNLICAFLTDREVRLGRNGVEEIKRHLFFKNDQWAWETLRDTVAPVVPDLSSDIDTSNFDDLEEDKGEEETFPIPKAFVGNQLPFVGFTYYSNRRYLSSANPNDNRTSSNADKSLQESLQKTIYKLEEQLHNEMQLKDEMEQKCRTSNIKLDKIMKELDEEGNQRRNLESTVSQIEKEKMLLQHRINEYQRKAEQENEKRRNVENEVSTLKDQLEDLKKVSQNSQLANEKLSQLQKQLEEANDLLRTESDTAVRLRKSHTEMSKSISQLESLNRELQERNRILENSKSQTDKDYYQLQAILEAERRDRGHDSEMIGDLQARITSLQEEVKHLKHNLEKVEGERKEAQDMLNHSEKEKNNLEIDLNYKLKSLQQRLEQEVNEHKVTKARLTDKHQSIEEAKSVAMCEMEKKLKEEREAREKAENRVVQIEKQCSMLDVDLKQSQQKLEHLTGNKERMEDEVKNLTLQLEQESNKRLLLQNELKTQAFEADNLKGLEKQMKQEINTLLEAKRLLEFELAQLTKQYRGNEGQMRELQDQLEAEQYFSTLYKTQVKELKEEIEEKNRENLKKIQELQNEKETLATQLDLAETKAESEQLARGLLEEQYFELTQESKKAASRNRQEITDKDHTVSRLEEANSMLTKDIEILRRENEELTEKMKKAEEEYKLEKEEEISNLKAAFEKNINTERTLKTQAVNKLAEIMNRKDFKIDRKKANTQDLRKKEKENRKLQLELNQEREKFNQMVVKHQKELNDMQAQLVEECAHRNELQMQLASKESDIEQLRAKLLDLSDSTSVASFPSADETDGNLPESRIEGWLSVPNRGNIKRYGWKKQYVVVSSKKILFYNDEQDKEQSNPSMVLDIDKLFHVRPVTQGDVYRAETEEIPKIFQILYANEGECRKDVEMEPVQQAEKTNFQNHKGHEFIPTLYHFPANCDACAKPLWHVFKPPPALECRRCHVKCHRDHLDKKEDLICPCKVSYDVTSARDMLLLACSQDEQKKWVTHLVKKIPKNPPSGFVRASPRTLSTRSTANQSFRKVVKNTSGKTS
T2 sequence (O75116 whole entry): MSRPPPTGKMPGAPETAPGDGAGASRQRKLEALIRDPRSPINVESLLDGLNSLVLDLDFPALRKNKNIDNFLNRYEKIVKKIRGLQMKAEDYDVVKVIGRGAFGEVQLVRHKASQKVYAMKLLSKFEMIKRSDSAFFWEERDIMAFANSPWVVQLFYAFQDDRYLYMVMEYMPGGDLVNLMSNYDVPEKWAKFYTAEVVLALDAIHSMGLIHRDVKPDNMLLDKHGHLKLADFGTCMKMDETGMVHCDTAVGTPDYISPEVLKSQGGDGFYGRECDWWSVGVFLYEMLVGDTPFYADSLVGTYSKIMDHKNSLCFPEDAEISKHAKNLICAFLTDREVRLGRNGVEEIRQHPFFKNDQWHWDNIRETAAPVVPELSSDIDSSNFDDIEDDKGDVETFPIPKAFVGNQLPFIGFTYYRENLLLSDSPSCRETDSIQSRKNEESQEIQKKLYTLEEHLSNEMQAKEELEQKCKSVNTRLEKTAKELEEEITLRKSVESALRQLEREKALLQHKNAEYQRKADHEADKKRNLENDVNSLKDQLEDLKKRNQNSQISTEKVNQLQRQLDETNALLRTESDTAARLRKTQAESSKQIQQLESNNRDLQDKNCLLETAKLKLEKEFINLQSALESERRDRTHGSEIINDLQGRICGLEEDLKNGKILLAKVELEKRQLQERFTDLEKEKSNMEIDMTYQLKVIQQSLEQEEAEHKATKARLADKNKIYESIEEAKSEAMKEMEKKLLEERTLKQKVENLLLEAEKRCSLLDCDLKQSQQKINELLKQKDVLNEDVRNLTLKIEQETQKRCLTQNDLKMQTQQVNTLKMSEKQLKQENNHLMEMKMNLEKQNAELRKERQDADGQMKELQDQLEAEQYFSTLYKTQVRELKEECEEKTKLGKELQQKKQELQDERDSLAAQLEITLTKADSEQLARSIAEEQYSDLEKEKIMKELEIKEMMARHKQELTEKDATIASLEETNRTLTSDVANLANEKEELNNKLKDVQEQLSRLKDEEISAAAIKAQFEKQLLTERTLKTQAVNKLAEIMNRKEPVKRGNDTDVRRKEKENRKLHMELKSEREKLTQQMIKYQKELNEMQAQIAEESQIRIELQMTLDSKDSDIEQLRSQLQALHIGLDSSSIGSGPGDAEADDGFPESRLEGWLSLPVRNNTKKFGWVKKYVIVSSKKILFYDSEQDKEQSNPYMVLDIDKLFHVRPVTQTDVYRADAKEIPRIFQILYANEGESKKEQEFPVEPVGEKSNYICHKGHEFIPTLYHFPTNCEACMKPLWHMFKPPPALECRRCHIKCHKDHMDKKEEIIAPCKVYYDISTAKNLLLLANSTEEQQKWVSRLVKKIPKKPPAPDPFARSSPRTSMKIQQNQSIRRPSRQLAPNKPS

Consider `O=C(Nc1ccc(-c2cn[nH]c2)cc1)C1COc2ccccc2C1` (stereo not shown) [Compound T299], for which the remaining activity at 10 µM amounted to 0.97% in test [1] (setting [10]) and 2.38% in test [1] (setting [11]).

Regarding `O=C(Nc1cccc(-c2ccncc2)c1)C1COc2ccccc2C1` (stereo not shown) [Compound T303], the “p-tau protein to total tau protein ratio” value in test [2] was “significant decrease”. The remaining activity at 10 µM in [1] (setting [10]) is 3.26%; in test [1] (setting [11]), 2.65%; in [3] (setting [12]), 0.78%; in test [3] (setting [13]), 0.55%.

As for `O=S(=O)(c1cccc2cnccc12)N1CCCN(Cc2ccc(F)cc2)CC1` [Compound T306], the remaining activity at 10 µM came out at 6.75% in test [1] (setting [10]), 6.94% in [1] (setting [11]), 3.85% in test [3] (setting [12]) and 3.62% in test [3] (setting [13]).

In the case of `O=C(NCCc1cccc(Cl)c1)c1ccc(-c2ccncc2)cc1` [Compound T343], the “p-tau protein to total tau protein ratio” value in test [2] is “significant decrease”; in [5] (4 biological replicates, FIG. 4) it was “significant decrease; also recorded: decreased ratio”. Moreover, the IC50 in [4] (Test 1, read-out: IC50 (μM) ROCK2 Test 1) was determined as 0.0167 µM; in [4] (Test 2, read-out: IC50 (μM) ROCK2 Test 2), 0.0102 µM; in test [6] (Test 1, read-out: IC50 (μM) ROCK1 Test 1) it was 0.0318 µM; in test [6] (Test 2, read-out: IC50 (μM) ROCK1 Test 2), 0.0227 µM. The remaining activity at 10 µM was determined as 1.22% in test [1] (setting [10]), 1.17% in test [1] (setting [11]), 0.08% in [3] (setting [12]) and 0.56% in [3] (setting [13]). Moreover, the “concentration of total tau protein” value in test [5] is given as “lesser concentrations”. Further, the “concentration of p-tau protein” value in test [5] is recorded as “lesser concentrations”.

For `CC(Cc1ccc(F)cc1)NC(=O)c1ccc(-c2ccncc2)cc1` (stereo not shown) [Compound T350], the “p-tau protein to total tau protein ratio” value in test [2] is recorded as “significant decrease”.

As for `CC(N)C1CCC(C(=O)Nc2ccncc2)CC1` (stereo not shown) [Compound Y27632, 4-(1-aminoethyl)-N-pyridin-4-yl-cyclohexane-1-carboxamide], the memory and learning entry in [7] (rats with ischemia) is “increased”; in test [7] (sham rats, no hyperphosphorylation of the tau protein) it was “decreased”. In addition, in test [7] (rats, hyperphosphorylation due to ischemia), the “hyperphosphorylation of the tau protein” value is reported as “decreased”. Further, in test [8], the “brain levels of Aβ42” value is listed as “preferentially lowered”.

Consider `O=S(=O)(c1cccc2cnccc12)N1CCCNCC1` [Fasudil, 5-(1,4-diazepan-1-ylsulfonyl)isoquinoline, reference compound], for which, in [5], the “concentration of total tau protein” value is recorded as “lesser concentrations” and the “concentration of p-tau protein” value is given as “lesser concentrations”. In test [9], the learning and memory entry is given as “increased”.
